# Source: patent EP4635958A1, “PYRIMIDINE-CONTAINING POLYCYCLIC DERIVATIVE INHIBITOR, AND PREPARATION METHOD THEREFOR AND USE THEREOF” (Shanghai Hansoh Biomedical Co., Ltd., priority 2022, dated 2024)
# Read-outs that look alike come from different tables or passages of the source.
# How the values were obtained:
# [1] = Plasma stability test, rat plasma; conditions: for Remaining rate (%) 0 min / Remaining rate (%) 15 min / Remaining rate (%) 30 min / Remaining rate (%) 60 min / Remaining rate (%) 120 min: Rat plasma, 37°C; for half-life: rat, plasma
# Text: The purpose of this experiment was to detect the stability of the example compounds in plasma of mouse, rat, dog and human.
# Liquid chromatography-mass spectrometer, centrifuge, vortexer, pipette, continuous dispenser, 96-well plate, 50% methanol aqueous solution, acetonitrile solution containing internal standard, blank matrix (plasma of rat, dog, or human), Propantheline (propantheline bromide), Mevinolin (lovastatin), and test compound.
# After whole blood was collected from animals or humans, it was placed in a test tube containing an anticoagulant and centrifuged at 3500 rpm for 10 min to collect the upper pale yellow plasma.
# The compound was weighed and the stock solution was formulated with DMSO and the working solution was formulated with 100 mM phosphate buffer.
# 2.36 mg of propantheline bromide was weighed and diluted with 1 mL of DMSO into a 10 mM stock solution; 10 µL of 10 mM stock solution was pipetted into 1 mL of 100 mM phosphate buffer to achieve a final concentration of 100 µM.
# 4.05 mg of lovastatin was weighed and diluted with 1 mL of DMSO into a 10 mM stock solution; 10 µL of 10 mM stock solution was pipetted into 1 mL of 100 mM phosphate buffer to achieve a final concentration of 100 µM.
# • 1) In a 96-well plate, 285 µL of plasma and 15 µL of 10 µM compound (test compound) were added in sequence and incubated at 37°C. • 2) 40 µL was taken at 0, 15, 30, 60, 90, and 120 min (the sampling point can be fine-tuned) and 160 µL of acetonitrile stop solution containing internal standard was add. • 3) After centrifugation (3500 rpm, 10 min), 50 µL of supernatant was taken, and 50 µL of DDH2O added for dilution and then the obtained mixture was injected into LC-MS/MS.
# • Instruments: Shimadzu LC-20 AD • Chromatographic column: Phenomenex Gemiu ® C18 (50*4.6 mm, 5 µm particle size); • mobile phase: A: Acetonitrile, B: 0.1% formic acid solution 0-8 min: 5% A→95% A, 2.0-2.1 min: 90%A→5% A; Flow rate: 0.8 mL/min; Run time: 5.0 min; Injection volume: 5 µL.
# • Instrument: API4000 liquid chromatography-mass spectrometer, AB Company, USA; • the ion source was electrospray ionization source (ESI); • drying gas (N2) temperature was 500°C; • electrospray voltage was 5500V; • the detection method was positive ion detection; • the scanning method was selected reaction monitoring (MRM); • the scanning time was 0.1s.
# GP2D = experiment: Inhibition of proliferation of KRAS G12D mutant tumor cell line GP2D (CellTiter-Glo); conditions: Homo sapiens, GP2d, 72 h, read-out: GP2D IC50
# Experimental: Experimental method: When SNU-1, HPAF-II, Panc0403, AsPC-1 or GP2D cells were cultured to the appropriate confluence, and the SNU-1, HPAF-II, Panc0403, AsPC-1 or GP2D cells were collected. The cells were adjusted to the appropriate cell density using complete culture medium, the cell suspension was plated onto a 96-well plate at 90 µL per well, and the plate was placed in the incubator at 37°C and 5% CO2 for adherent culture overnight. Solutions of the compound with different concentrations were formulated using DMSO and culture medium. A vehicle control was set up. […] Then, CellTiter-Glo solution was added, and the obtained mixture was shaken and mixed evenly, incubated in the dark for 10 min, and read with a BioTek Synergy H1 microplate reader. […] Experimental data processing method: The luminescence signal value was used to calculate the inhibition rate. Graphpad Prism software was used to fit the concentration and inhibition rate to a nonlinear regression curve, so as to obtain the IC50 value.
# p-ERK in AGS cells = experiment: Inhibition of p-ERK in AGS cells (LANCE Ultra phospho-ERK1/2 kit); type: cell-based; conditions: Homo sapiens, AGS, 2 h, read-out: AGS_pERK IC50
# Outline: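 AGS (KRAS G12D) cells plated overnight, treated with compound dilutions for 2 h at 37°C, then lysed. Lysate p-ERK1/2 (T202/Y204) read by TR-FRET with 0.5 nM Eu anti-p-ERK and 5 nM ULight anti-ERK after overnight room-temperature incubation (665/620 nm). IC50 from nonlinear regression of inhibition versus concentration.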
# [2] = Pharmacokinetic determination in rats (IV and PO, plasma, LCMS/MS); type: in vivo, SD rats
# Outline: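 Male SD rats (3/group), fasted overnight, dosed PO at 30 mg/kg in 10% Captisol/50 mM citrate pH 5.0 or IV at 1 mg/kg in 5% DMSO/10% Solutol HS15/85% PBS. Jugular plasma (EDTA-2K) sampled predose to 24 h; analysed by LCMS/MS.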
# [3] = PO 30 mg/kg vs IV 1 mg/kg, male SD rats
# [4] = rat, in vivo, IV, 1 mg/kg, male SD rats, overnight fasting, plasma, read-out: AUCo-∞
# [5] = rat, in vivo, IV, 1 mg/kg, male SD rats, overnight fasting, plasma, read-out: C0
# [6] = rat, in vivo, IV, 1 mg/kg, male SD rats, overnight fasting, plasma, read-out: CL
# [7] = rat, in vivo, IV, 1 mg/kg, male SD rats, overnight fasting, plasma, read-out: T1/2 (converted)
# [8] = rat, in vivo, PO, 30 mg/kg, male SD rats, overnight fasting, plasma, read-out: AUCo-∞
# [9] = rat, in vivo, PO, 30 mg/kg, male SD rats, overnight fasting, plasma, read-out: Cmax
# [10] = rat, in vivo, PO, 30 mg/kg, male SD rats, overnight fasting, plasma, read-out: T1/2 (converted)
# [11] = rat, in vivo, PO, 30 mg/kg, male SD rats, overnight fasting, plasma, read-out: Tmax
Compound,Remaining rate (%) 0 min [1] [%],Remaining rate (%) 15 min [1] [%],Remaining rate (%) 30 min [1] [%],Remaining rate (%) 60 min [1] [%],Remaining rate (%) 120 min [1] [%],half-life [1] [h],IC50 (GP2D) [nM],IC50 (p-ERK in AGS cells) [nM],"F [2, 3] [%]","AUC(0-inf) [2, 4] [µg·h/mL]","C0 [2, 5] [µg/mL]","clearance [2, 6] [L/h/kg]","half-life [2, 7] [h]","AUC(0-inf) [2, 8] [µg·h/mL]","Cmax [2, 9] [µg/mL]","half-life [2, 10] [h]","Tmax [2, 11] [h]",further results
"C#Cc1c(F)ccc2cc(O)cc(-c3nc4c5c(nc(OCC6(CN7CCC(=C(F)F)CC7)CC6)nc5c3F)N3C[C@H]5CC[C@H](N5)[C@H]3[C@H](C)O4)c12 [Example 19-1, 4-((5S,5aS,6S,9R)-12-((1-((4-(difluoromethylene)piperidin-1-yl)methyl)cyclopropyl)methoxy)-1-fluoro-5-methyl-5a,6,7,8,9,10-hexahydro-5H-4-oxa-3,10a,11,13,14-pentaaza-6,9-methylnaphtho[1,8-ab]hept-2-yl)-5-ethynyl-6-fluoronaphthalene-2-ol]",100.00,96.27,91.39,95.69,94.09,86.3,0.16,5.6,5.4,1.9,1.72,0.528,10.1,3.08,0.329,8.2,2,
"C#Cc1c(F)ccc2cc(O)cc(-c3nc4c5c(nc(OCC6(CN7CCC(=CF)CC7)CC6)nc5c3F)N3C[C@H]5CC[C@H](N5)[C@H]3[C@H](C)O4)c12 [Example 129, 5-ethynyl-6-fluoro-4-((5S,5aS,6S,9R)-1-fluoro-12-((1-((4-(fluoromethylene)piperidin-1-yl)methyl)cyclopropyl)methoxy)-5-methyl-5a,6,7,8,9,10-hexahydro-5H-4-oxa-3,10a,11,13,14-pentaaza-6,9-methylnaphtho[1,8-ab]hept-2-yl)naphthalen-2-ol]",100.00,110.22,98.09,106.43,95.62,41.2,0.17,2.4,5.4,0.578,2.12,1.73,11.7,0.938,0.103,9.6,1,
"[2H]C([2H])([2H])[C@@H]1Oc2nc(-c3cc(O)cc4ccc(F)c(C#C)c34)c(F)c3nc(OCC4(CN5CCC(=C(F)F)CC5)CC4)nc(c23)N2C[C@H]3CC[C@H](N3)[C@@H]12 [Example 161, 4-((5S,5aS,6S,9R)-12-((1-((4-(difluoromethylene)piperidin-1-yl)methyl)cyclopropyl)methoxy)-1-fluoro-5-(methyl-d3)-5a,6,7,8,9,10-hexahydro-5H-4-oxa-3,10a,11,13,14-pentaaza-6,9-methylnaphtho[1,8-ab]hept-2-yl)-5-ethynyl-6-fluoronaphthalen-2-ol]",,,,,,29.4,0.24,4.9,,,,,,,,,,"F ([2]; rat, in vivo): 7%; AUC(0-inf) ([2]; rat, in vivo, iv, 1 mg/kg): 1.42 µg·h/mL; C0 ([2]; rat, in vivo, iv, 1 mg/kg): 0.704 µg/mL; clearance ([2]; rat, in vivo, iv, 1 mg/kg): 0.702 L/h/kg; half-life ([2]; rat, in vivo, iv, 1 mg/kg): 8.4 h; AUC(0-inf) ([2]; rat, in vivo, po, 30 mg/kg): 2.89 µg·h/mL; Cmax ([2]; rat, in vivo, po, 30 mg/kg): 0.254 µg/mL; Tmax ([2]; rat, in vivo, po, 30 mg/kg): 6 h; half-life ([2]; rat, in vivo, po, 30 mg/kg): 6.9 h"
[2H]C([2H])([2H])[C@@H]1Oc2nc(-c3cc(O)cc4ccc(F)c(C#C)c34)c(F)c3nc(OCC4(CN5CCC(=CF)CC5)CC4)nc(c23)N2C[C@H]3CC[C@H](N3)[C@@H]12 [Example 164],100.00,97.07,93.36,97.21,95.03,91.6,0.32,3.6,,0.774,0.838,1.29,17.6,1.58,0.135,14,2,
"C#Cc1c(F)ccc2cc(O)cc(-c3nc4c5c(nc(OCC6(CN7CCC(=C(F)F)CC7)CC6)nc5c3F)N3C[C@H]5CC[C@H](N5)[C@H]3CO4)c12 [Example 1-1, 4-((5aS,6S,9R)-12-((1-((4-(difluoromethylene)piperidin-1-yl)methyl)cyclopropyl)methoxy)-1-fluoro-5a,6,7,8,9,10-hexahydro-5H-4-oxa-3,10a,11,13,14-pentaaza-6,9-methylenenaphtho[1,8-ab]heptalene-2-yl)-5-ethynyl-6-fluoronaphthalen-2-ol]",100.00,95.76,92.93,88.38,80.60,13.5,1.2,7,2.1,2.96,1.77,0.336,16.3,1.89,0.254,5.1,6,
